# Source: patent US11254986B2, “Gene signature for immune therapies in cancer” (ALMAC DIAGNOSTICS LIMITED, priority 2015, dated 2022)
# What was measured:
# cGAS bound to Histone H3 = experiment: Co-immunoprecipitation of cGAS with Histone H3 in cytosolic fraction; assay type: cell-based; settings: HeLa cells, not observed in DMSO treated control, FIG. 18B
# Protocol: Cells were fractionated using Buffer A (10 mM Hepes pH7.4; […] MgCl2, 10 mM NaCl, 0.1% NP-40, Protease and Phosphatase inhibitors) and Buffer C (10 mM Hepes pH7.4; […], 420 mM NaCl, 0.1% NP-40, Protease and Phosphatase inhibitors). Cells were cultured at ˜70% confluency. Cells were then removed in PBS using a cell scraper and transferred to an Eppendorf. Following centrifugation at 1000 rpm at 4° C. for 5 minutes, cell pellets were resuspended in 350 μl Buffer A. Cells were lysed on ice for twenty minutes, following which samples were centrifuged at 12000 rpm for 2 minutes. Supernatants were removed, and spun a further two times at 12000 rpm for 2 minutes. The supernatant (cytoplasmic fraction) was carefully removed and stored at −80° C. until quantification using the BCA Assay (Pierce, Rockford, Ill., USA) according to manufacturer's instructions using a plate reader. The remaining pellet was washed ×1 in Buffer A, then centrifuged at 12000 rpm for 2 minutes. […] Samples were then centrifuged at 12000 rpm for two minutes to remove debris, and supernatant (nuclear fraction) stored at −80° C. until quantification as described above.
# Cytoplasmic fractions were prepared as described above. […] Results were then visualized and recorded using Luminata Crescendo Western HRP substrate (Millipore, UK) and an alpha imager.
# cytosolic Histone H3 = experiment: Western blot of Histone H3 in cytosolic fractions; assay type: cell-based; settings: HeLa cells; compared to DMSO control treatment; FIG. 19B
# From the text: Adherent cells formed whole cell lysates suspended in RIPA buffer containing phosphatase and protease inhibitors (Roche Inhibitor cocktails, Germany). Lysates were then spun to eliminate cell debris. Protein was quantified using the BCA Assay (Pierce, Rockford, Ill., USA) according to manufacturer's instructions using a plate reader. […] Results were then visualized and recorded using Luminata Crescendo Western HRP substrate (Millipore, UK) and an alpha imager.
# Cells were fractionated using Buffer A (10 mM Hepes pH7.4; […] MgCl2, 10 mM NaCl, 0.1% NP-40, Protease and Phosphatase inhibitors) and Buffer C (10 mM Hepes pH7.4; […], 420 mM NaCl, 0.1% NP-40, Protease and Phosphatase inhibitors). […] The supernatant (cytoplasmic fraction) was carefully removed and stored at −80° C. until quantification using the BCA Assay (Pierce, Rockford, Ill., USA) according to manufacturer's instructions using a plate reader. […] Samples were then centrifuged at 12000 rpm for two minutes to remove debris, and supernatant (nuclear fraction) stored at −80° C. until quantification as described above.
Compound,binding of cGAS to Histone H3 (co-IP) (cGAS bound to Histone H3),Histone H3 protein levels in cytosolic fraction (cytosolic Histone H3)
N.N.[Cl][Pt][Cl] [cisplatin],cGAS was again bound to Histone H3,increased Histone H3 protein levels
"NC(=O)NO [hydroxyurea, Hydroxyurea]",cGAS was again bound to Histone H3,increased Histone H3 protein levels
